Data reported in article PMC8018653, “Gender-based differences in brain and plasma pharmacokinetics of letrozole in sprague-dawley rats: Application of physiologically-based pharmacokinetic modeling to gain quantitative insights” (PLoS ONE, 2021).
Entries after “also recorded” stand apart in the source; their conditions may differ. Read-outs that look alike come from different tables or passages of the source. Marks after values point to notes of the source that are not given here.

How the values were obtained:
[1] = Steady state plasma pharmacokinetics (4 mg/kg i.p. once daily), NCA; assay type: in vivo, Sprague-Dawley rats; details: for Cmax / Tmax / AUC(0-t): Sprague-Dawley, rat, ip; for Cmax / Tmax / Rac’ (theoretical/predicted accumulation ratio, Eq 2) / AUC(0-t): plasma; for Cmax: read-out: Cmax, plasma total; for Tmax: read-out: Tmax, plasma total; for AUC 0–12, plasma unbound / AUC 0–24, plasma unbound / Cmax, plasma unbound: fraction unbound 0.38; for AUC(0-t): 4 mg/kg
Experimental: Age-matched (7–9 weeks) adult female (201–225 g; N = 10) and male (301–325 g; N = 10) jugular vein cannulated Sprague-Dawley rats (Charles River Laboratories) were used for this study. The experiments were conducted in strict accordance with the University of Cincinnati Institutional Animal Care and Use Committee (UC IACUC)-approved protocol (Protocol Number: 10-11-01-01) and all the studies were performed as per the highest international standards of animal welfare outlined by the NIH’s Guide for the Care and Use of Laboratory Animals. Upon arrival, animals were housed individually under pathogen-free, temperature and humidity-controlled environment on a 12/12 h light/dark cycle and were given access to standard chow and water ad libitum (ad-lib). To maintain the patency of the jugular vein catheters, they were flushed with normal saline and locked with the heparin-dextrose solution every other day.
Letrozole was extracted from the plasma samples using the liquid-liquid extraction technique. Calibration standards were freshly prepared by spiking working letrozole solution into the blank rat plasma to give a concentration curve ranging from 5 to 5000 ng/ml. Briefly, 50 μl of the plasma sample/standard spiked with known letrozole concentration was transferred to a glass tube containing 1 mL of the extraction solvent methyl-tertiary-butyl ether. All the samples were then vortex mixed for 40 sec and centrifuged for 5 min. 800 μl of the supernatant was decanted into a clean test tube and evaporated to dryness using a CentriVap evaporator. The precipitate was reconstituted in 100 μl of the mobile phase and vortex mixed, following which, 50 μl sample volume was injected onto the HPLC system for analysis. The dialysis samples, on the other hand, were injected directly onto HPLC.

[2] = In vivo unbound fraction in brain (brain ECF / whole brain tissue homogenate); details: Sprague-Dawley, rat, ip, healthy and tumor-bearing female rats, 4 mg/kg i.p., ~6 hrs, mean ± SD, read-out: Fraction unbound in brain (fu, brain)
Source text: Simcyp Animal Simulator V17 (Certara Inc.) was employed for developing a bottom-up whole body PBPK model incorporating the specified multi-compartment brain model. Based on its anatomy and physiology, the whole brain is described by three compartments, viz. brain blood, brain mass and cerebrospinal fluid (CSF) as illustrated in Fig 1 (Simcyp® Rat Simulator). For model development, the physiological/ system-specific parameters were inferred from the existing rodent species within the animal simulator while, the key drug- specific parameters used are summarized in Table 1. Briefly, all the physiochemical and binding to blood components (plasma proteins and erythrocytes) parameters of letrozole were derived from expansive literature review. […] Full-PBPK model was employed for drug distribution while the Rodgers and Rowland method or “Method 2”, as defined in Simcyp v17, predicted the volume of distribution (Vss). For the multi-compartment brain model, the passive permeability-surface area product on the BBB (PSB) was determined using the Crone- Renkin Equation [25, 26]: PSB=−Fpfln(1−Kin/Fpf) (3) where, Fpf is the cerebral blood or perfusion flow rate and Kin is the brain uptake clearance. […] The fu, brain for letrozole was experimentally determined in both healthy and tumor-bearing female Sprague-Dawley rats (N = 4/ group).

[3] = Passive permeability-surface area products by Crone-Renkin equation
Source text: Simcyp Animal Simulator V17 (Certara Inc.) was employed for developing a bottom-up whole body PBPK model incorporating the specified multi-compartment brain model. Based on its anatomy and physiology, the whole brain is described by three compartments, viz. brain blood, brain mass and cerebrospinal fluid (CSF) as illustrated in Fig 1 (Simcyp® Rat Simulator). For model development, the physiological/ system-specific parameters were inferred from the existing rodent species within the animal simulator while, the key drug- specific parameters used are summarized in Table 1. Briefly, all the physiochemical and binding to blood components (plasma proteins and erythrocytes) parameters of letrozole were derived from expansive literature review. […] Full-PBPK model was employed for drug distribution while the Rodgers and Rowland method or “Method 2”, as defined in Simcyp v17, predicted the volume of distribution (Vss). For the multi-compartment brain model, the passive permeability-surface area product on the BBB (PSB) was determined using the Crone- Renkin Equation [25, 26]: PSB=−Fpfln(1−Kin/Fpf) (3) where, Fpf is the cerebral blood or perfusion flow rate and Kin is the brain uptake clearance. […] The passive permeability-surface area product on the blood-cerebrospinal fluid barrier (BCSFB), PSC, was assumed as half of the PSB [19, 27] while the passive permeability-surface area product on the cerebrospinal fluid-brain barrier (CSFBB), PSE, was set at 80 mL/min, assuming a high permeability of this barrier. Brain ECF concentrations were predicted using the in vivo unbound fraction in the brain (fu, brain) for letrozole multiplied by the simulated total brain concentrations. The fu, brain for letrozole was experimentally determined in both healthy and tumor-bearing female Sprague-Dawley rats (N = 4/ group).

[4] = cited from earlier work
[5] = PBPK input; ref Chemicalize database; cited from earlier work
[6] = set-up: method as in PMID 23748921; details: cited from earlier work
C6 orthotopic tumor = system: C6 orthotopic tumor; set-up: method as in PMID 25695958; details: C6 orthotopic glioma, rats, 4 mg/kg; cited from earlier work
[7] = set-up: method as in PMID 23712697; details: in situ mouse brain perfusion; cited from earlier work
[8] = set-up: method as in PMID 11501174; details: cited from earlier work; for CLpo: assuming 250 g average body weight
[9] = set-up: method as in PMID 16489364; details: cited from earlier work
[10] = set-up: method as in PMID 30357450; details: NSG mice; cited from earlier work
P-glycoprotein (P-gp) = details: cited from earlier work
[11] = female rats, steady state, 4 mg/kg i.p. daily for 11 days
[12] = male rats, steady state, 4 mg/kg i.p. daily for 5 days
[13] = female rats, steady state, 11 days
[14] = male rats, steady state, 5 days

- Cmax [1, 11]: 4830 ng/mL
- Tmax [1, 11]: 5.3 h
- Cmax [1, 12]: 1490 ng/mL
- Tmax [1, 12]: 3.3 h
- Rac plasma (observed accumulation ratio, AUC0-12) ([1]; female rats, Day 11 / Day 1): 4.2
- Rac plasma (observed accumulation ratio, Cmax) ([1]; female rats, Day 11 / Day 1): 4.0
- Rac’ (theoretical/predicted accumulation ratio, Eq 2) ([1]; female rats): 2.6
- CL (systemic clearance), plasma [1, 11]: 39.3 (5.5)* ml/h/kg
- AUC 0–12, plasma unbound [1, 13]: 18734 (2360) h.ng/ml
- AUC 0–24, plasma unbound [1, 13]: 39129 (5267) h.ng/ml
- Cmax, plasma unbound [1, 13]: 1835 (359) ng/ml
- AUC(0-t) ([1]; female, female rats, steady state, 4 mg/kg i.p. daily for 11 days, read-out: AUC 0–12, plasma total): 49300 ng·h/mL
- AUC(0-t) ([1]; female, female rats, steady state, 4 mg/kg i.p. daily for 11 days, read-out: AUC 0–24, plasma total): 103000 ng·h/mL
- AUC(0-t) ([1]; female, female rats, steady state, 4 mg/kg i.p. daily for 11 days, read-out: plasma AUC 0–24): 103000 ng·h/mL
- observed accumulation at steady state (plasma Cmax and AUC0-12) ([1]; male rats): approximately 1.4 fold
- Rac plasma (observed accumulation ratio, AUC0-12) ([1]; male rats, Day 5 / Day 1): 1.4
- Rac plasma (observed accumulation ratio, Cmax) ([1]; male rats, Day 5 / Day 1): 1.4
- Rac’ (theoretical/predicted accumulation ratio, Eq 2) ([1]; male rats): 1.2
- CL (systemic clearance), plasma [1, 12]: 200.6 (98) ml/h/kg
- AUC 0–12, plasma unbound [1, 14]: 5624 (2430) h.ng/ml
- AUC 0–24, plasma unbound [1, 14]: 9424 (4660) h.ng/ml
- Cmax, plasma unbound [1, 14]: 566 (209) ng/ml
- AUC(0-t) ([1]; male, male rats, steady state, 4 mg/kg i.p. daily for 5 days, read-out: AUC 0–12, plasma total): 14800 ng·h/mL
- AUC(0-t) ([1]; male, male rats, steady state, 4 mg/kg i.p. daily for 5 days, read-out: AUC 0–24, plasma total): 24800 ng·h/mL
- AUC(0-t) ([1]; male, male rats, steady state, 4 mg/kg i.p. daily for 5 days, read-out: plasma AUC 0–24): 24800 ng·h/mL
- systemic clearance, difference between male and female rats ([1]; steady state): approximately 5.0 fold
- fraction unbound [2]: 0.58
- PSC (passive permeability-surface area product on the BCSFB) ([3]; Assumed to be half of PSB): 0.42 mL/min
- PSB (passive permeability-surface area product on the BBB) ([3]; Determined using Eq (3), assuming 1800 mg brain weight): 0.84^b mL/min
SMILES: N#Cc1ccc(C(c2ccc(C#N)cc2)n2cncn2)cc1 [letrozole]
- PSB ([3]; Eq (3)): bBased on PSB = 0.469 mL/min/g brain weight, assuming 1800 mg brain weight.
- Blood-to-plasma partition ratio ([4]; PBPK input, ref CDER NDA 20–726): 0.8
- plasma protein binding [4]: ≈ 60%
- Intrinsic solubility [5]: 62 µg/mL
- logP [5]: ≈ 2.5
- brain-to-plasma partition coefficients ([6]; brain and brain tumor tissue, female Sprague-Dawley rats): 0.5–1.0
- intra-tumoral levels relative to the contralateral tumor-free region [6]: 1.5 to 2 fold
- in vivo efficacy (tumor mass / volume) (C6 orthotopic tumor): marked reduction in the tumor mass; also recorded: marked reduction in tumor volume
- Kin (brain uptake clearance) [7]: 0.422 ± 0.068 mL/min/g brain
- Fa ([8]; PBPK input): 0.99
- CLpo ([8]; females): 0.21 mL/min
- CL ([8]; females): 0.85 mL/min/kg
- Ka (first-order rate of absorption) ([8]; females): 0.49 h⁻¹
- CLpo ([8]; males): 0.77 mL/min
- CL ([8]; males): 3.08 mL/min/kg
- Ka (first-order rate of absorption) ([8]; males): 0.29 h⁻¹
- oral bioavailability [9]: ~100%
- half-life [10]: ~ 3 hrs
- substrate for the efflux transporter P-glycoprotein (P-gp) (P-glycoprotein (P-gp)): not a substrate
